Source: patent publication US12208105B2, “Methods for attenuating graft-versus-host disease and opportunistic infections” (priority 2018, dated 2025)

What was measured:
CCR7 = target: T1, CCR7 (Mus musculus, UniProt P47774); assay: Trans-well chemotaxis assay, primary murine T cells; assay type: cell-based
T1 construct: confirm that hits identified in the HTS were active against native CCR7; endogenous in cells; host or cells: primary naive (CD25neg) T cells from C57BL/6 mice
T1 sequence (P47774 25-378): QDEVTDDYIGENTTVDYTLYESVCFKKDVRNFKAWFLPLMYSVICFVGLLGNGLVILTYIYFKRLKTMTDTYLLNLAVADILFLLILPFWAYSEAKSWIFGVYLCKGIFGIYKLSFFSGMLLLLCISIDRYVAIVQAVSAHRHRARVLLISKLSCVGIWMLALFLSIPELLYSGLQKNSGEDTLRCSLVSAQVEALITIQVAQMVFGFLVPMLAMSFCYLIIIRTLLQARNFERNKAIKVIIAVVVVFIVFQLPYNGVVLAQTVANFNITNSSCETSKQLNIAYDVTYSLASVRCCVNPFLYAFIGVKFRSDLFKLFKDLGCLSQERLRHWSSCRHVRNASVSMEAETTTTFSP
Procedure: FIGS. 1A-1D show cosalane impairs CCR7 driven human and murine chemotaxis. (A, B) Chemotaxis media with or without CCL19 (A) or CCL21 (B) was added to the lower chambers of the chemotaxis device. Previously untreated H9 cells were then placed in the upper chambers of the device with or without cosalane at a concentration of 2 μM. The chamber was then placed at 37° C. for 3.5 hours and total H9 migration from each upper to lower chamber determined. (A) *P=0.048 for comparison between H9 cells/30 nM CCL19 and H9 cells/30 nM CCL19/2 μM cosalane by Student's t test. (B) P>0.05 for comparison between H9 cells/200 nM CCL21 and H9 cells/200 nM CCL21/2 μM cosalane. (C, D) Chemotaxis media with or without CCL19 (C) or CCL21 (D) was added to the lower chambers of the chemotaxis device. Previously untreated primary murine T cells were then placed in the upper chambers of the device with or without cosalane at a concentration of 2 μM. Total T cell migration from each upper to lower chamber was then determined. (C) *P=0.029. (D) *P<0.001.
While useful from a screening perspective, our primary reporter assays for the HTS were not physiologic. As a result, it was important to confirm that hits identified in the HTS were active against native CCR7 and could block an actual function mediated by the receptor. For this, we used a well-described trans-well chemotaxis assay system using human H9 cells, a cutaneous T cell lymphoma line known to express high levels of CCR7 and to migrate in response to its ligands (Ott et al., J. Pharmacol. Toxicol. Meth. 51:105 (2005)). In addition, we utilized primary mouse, naïve (CD25^neg) T cells obtained from C57BL/6 mice. As depicted in FIG. 1A, human H9 cells placed in the upper chambers of the chemotaxis device readily migrated through the separating membrane when CCL19 was present in the lower chamber. […] Similarly, murine T cell chemotaxis was also impaired by cosalane in response to both CCL19 and CCL21 (FIGS. 1C-1D).
To evaluate this possibility, human H9 cells were incubated with 10 mcg/ml (13 μM) of cosalane versus DMSO vehicle for one hour and then washed free of the compound. The cells were then placed into the chemotaxis chamber as was done in FIGS. 1A-1D. […] Similar experiments were performed with naïve primary mouse T cells.

B6 into B6D2 aGVHD model = assay: aGVHD, B6 into B6D2 transplant, cosalane dosed systemically; assay type: in vivo, mouse
Procedure: Transplantation Procedures: Recipient mice were irradiated on transplant day −1. Recipients were then administered T cell depleted (TCD) bone marrow cells +/−CD25^− column-purified conventional T cells (Tcons) to induce aGVHD as previously described (Wysocki et al., J. Immunol. 173:845 (2004); Carlson et al., Blood 113:1365 (2009)). Tcons consisted of CD4^+ and CD8^+ T cells in a 1:1 ratio. For ex-vivo cosalane incubations, cell populations were suspended in serum/protein free injectable saline unless otherwise indicated. […] The cells were then administered immediately to recipients by tail vein injection.

[1] = system: B6 into BALB/c aGVHD model; assay: aGVHD, B6 into BALB/c MHC mismatched allograft, Tcons incubated ex vivo; assay type: in vivo, mouse
[2] = system: murine cytomegalovirus (mCMV); assay: Murine cytomegalovirus plaque assay on 3T3 fibroblasts; assay type: cell-based
[3] = cited from earlier work
CCR1 = target: T2, CCR1 (Homo sapiens, UniProt P32246); settings: cited from earlier work
T2 sequence (P32246 1-355): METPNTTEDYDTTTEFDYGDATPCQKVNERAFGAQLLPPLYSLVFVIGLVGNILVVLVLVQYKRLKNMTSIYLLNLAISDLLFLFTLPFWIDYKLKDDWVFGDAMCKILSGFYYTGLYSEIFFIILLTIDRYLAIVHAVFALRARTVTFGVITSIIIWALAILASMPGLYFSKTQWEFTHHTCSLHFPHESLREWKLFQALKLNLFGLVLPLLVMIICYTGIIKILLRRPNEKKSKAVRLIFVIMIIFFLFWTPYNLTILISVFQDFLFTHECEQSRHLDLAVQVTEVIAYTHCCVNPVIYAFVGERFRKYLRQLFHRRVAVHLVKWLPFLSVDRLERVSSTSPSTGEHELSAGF

[4] = system: herpes simplex 1 and 2 and human cytomegalovirus; settings: cited from earlier work
[5] = in vitro, previous reports; cited from earlier work
B6 Tcons = assay: Tcon proliferation assay
Procedure: (A) B6 Tcons were purified and incubated with increasing concentrations of cosalane or equal volumes of DMSO vehicle in normal saline for one hour at 37° C. The cells were then washed and cultured on 24 well plates pre-coated with anti-CD3 and anti-CD28 antibody in the presence of supplemental IL-2 for 72 hours. The number of cells per well were then quantified.
Tcon proliferation assay: Purified CD25^− B6 Tcons were incubated with cosalane at the indicated concentrations or an equal volume of DMSO vehicle for one hour at 37° C. The cells were then washed and cultured on 24-well plates previously incubated overnight with anti-CD3 and anti-CD28 antibody at 10 μg/ml. The cells were cultured for 72 hours in complete media supplemented with murine interleukin-2 at 100 IUs/ml and then counted using a hemacytometer.
Purified B6 Tcons were isolated as before and incubated with cosalane at increasing concentrations ranging from 10 μg/ml (13 μM—the concentration used for the B6 into B6D2 survival experiment described in FIGS. 3D and 3E) to 30 μg/ml (39 μM) or an equal volume of DMSO diluted in normal saline. The cells were then washed, placed on 24 well plates pre-coated with anti-CD3 and anti-CD28 immunoglobulin, and cultured for 72 hours in media containing supplemental IL-2.

[6] = system: CCR7-/- B6 into BALB/c aGVHD model; assay: aGVHD induced with CCR7-/- B6 Tcons into BALB/c
Procedure: (A, B) BALB/c mice were lethally irradiated on transplant day −1. On day 0 recipients were administered 5×10^6 TCD B6 BM cells +/−3×10^6 CCR7^−/− B6 Tcons. Donor Tcons were incubated ex vivo with DMSO vehicle or cosalane diluted in normal saline at 15 μg/ml. The cells were then mixed with untreated TCD B6 BM cells and administered immediately to recipient mice by tail vein injection. Mice were then followed for survival and scored for aGVHD. N=2 BM only. N=6 for all other treatment groups. […] (C, D) BALB/c mice were transplanted as in A, B. Donor CCR7^−/− B6 Tcons, however, were incubated ex vivo with DMSO vehicle or cosalane diluted in normal saline at 30 μg/ml. N=2 BM only. N=9 for all other treatment groups.
As a result, we repeated our CCR7^−/− B6 into BALB/c transplant but pre-incubated the donor Tcons with an identical cosalane strength of 30 μg/ml.

[7] = system: P815 murine mastocytoma cells; assay: P815 graft-versus-leukemia model with in vivo imaging
Procedure: B6D2 mice were lethally irradiated on transplant day −1. On day 0 recipients were administered 3×10^6 TCD B6 BM cells and 2.5×10^4 luciferase^+ P815 murine mastocytoma cells (H-2^d)+/−4×10^6 B6 Tcons. Donor Tcons were incubated ex vivo with DMSO vehicle or cosalane diluted in normal saline at 15 μg/ml. The cells were then mixed with untreated BM/tumor cells and administered immediately to recipient mice by tail vein injection. Mice were then serially imaged twice weekly following the intraperitoneal injection of luciferin. […] Recipient mortality was attributed to tumor versus aGVHD based on the tumor burden by imaging and clinical aGVHD scores at the time of death. Exposure time=4 seconds for all panels. N=5 per treatment group.
B6D2 mice were lethally irradiated on transplant day −1. On day 0 recipients were administered 3×10^6 TCD B6 BM cells and 2.5×10^4 luciferase^+ P815 murine mastocytoma cells. Some recipients also received 2×10^6 DMSO treated B6 Tcons or 4×10^6 cosalane treated B6 Tcons (15 μg/ml). Mice were then serially imaged twice weekly following the intraperitoneal injection of luciferin. […] Exposure time=4 seconds for all panels. The “mixed” cage on the far right contained one mouse each of the BM/P815 only, BM/P815 plus DMSO Tcons, and BM/P815 plus cosalane Tcons groups. N=6 per treatment group.
P815 graft-versus-leukemia model and in vivo imaging: Luciferase transfected P815 murine mastocytoma cells (H-2^d) were a kind gift from the laboratory of Dr. Jonathan Serody. P815 cells were cultured and then mixed with TCD bone marrow cells prior to transplantation. A tumor dose of 2.5×10^4 P815 cells was used for all experiments. Recipients were then serially imaged using an IVIS Kinetic Optical real-time imaging system to monitor for in vivo tumor growth twice weekly. For imaging, recipients were dosed with 3 mg of D-luciferin (Perkin Elmer) by intraperitoneal injection 10 minutes prior to the procedure. Mice were then anesthetized with isoflurane during image acquisition. Unless otherwise indicated an exposure time of 4 seconds was used for all images.
As a result, we evaluated cosalane's effects on GVL immunity using a well described P815 murine mastoma (H-2^d) leukemia model. Here, B6D2 mice were lethally irradiated and then administered 3×10^6 TCD B6 bone marrow cells containing 25,000 luciferase transfected P815 cells +/−4×10^6 B6 Tcons to drive a GVL response. One half of those mice receiving BM/Tumor plus Tcons were administered Tcons incubated with DMSO and the other one half received cosalane treated Tcons. Recipients were subsequently evaluated by serial in vivo imaging in order to monitor tumor growth in each treatment group. […]

[8] = 10 mcg/ml (13 μM), then washed, vs DMSO
[9] = 4×10^6 Tcons incubated 15 μg/ml
[10] = 4×10^6 cosalane treated Tcons vs 2×10^6 DMSO Tcons

In the case of `CC(C)CCC[C@@H](C)[C@H]1CC[C@H]2[C@@H]3CC[C@H]4C[C@@H](CCC=C(c5cc(Cl)c(O)c(C(=O)O)c5)c5cc(Cl)c(O)c(C(=O)O)c5)CC[C@]4(C)[C@H]3CC[C@]12C` [Cosalane, cosalane], the “murine T cell chemotaxis in response to CCL19” value (CCR7; 2 μM cosalane in upper chamber) is reported as “impaired”, the “murine T cell chemotaxis in response to CCL21” value (CCR7; 2 μM cosalane in upper chamber) is reported as “impaired” and the “primary murine T cell chemotaxis in response to CCL19 after pretreatment” value (CCR7; [8]) is reported as “significantly reduced”. The “primary murine T cell chemotaxis in response to CCL21 after pretreatment” value (CCR7; [8]) was “significantly reduced”, the “aGVHD (survival and scores) with systemic dosing” value (B6 into B6D2 aGVHD model; 10 mg/kg intravenous, day 0, +3, +6) was “did not attenuate aGVHD and may have actually worsened clinical outcomes” and the “dosages much better tolerated by irradiated recipients” value (B6 into B6D2 aGVHD model; irradiated recipients, 10 mg/kg excessively high) was 0.5 to 2 mg/kg. The survival times ([1]; Tcons incubated 15 μg/ml in saline) was “prolonged survival times”, the survival ([1]; Tcons incubated 30 μg/ml) was “most recipients surviving to the end of the study period” and the “mCMV plaque number / activity, compound in infectivity media” value ([2]; 15 μg/ml throughout infection, MOI 0.05 and 0.005, vs DMSO) was “significantly reduced plaque number”. The “mCMV visible cytopathic effect, isolated pretreatment of 3T3 cells” value ([2]; pretreatment only) was “virtually no effect”, the tissue accumulation ([3]; administered intravenously) was “propensity to accumulate within the liver” and the oral bioavailability ([3]; in vivo, po) was “very poor oral bioavailability”. For the same compound, the “CCR1 dependent chemotaxis in response to CCL3 and CCL4” value (CCR1) was “inactive”, the “CCR1 dependent chemotaxis in response to CCL5” value (CCR1) was “blocked” and the “viral cytopathic effect induced by herpes viruses” value [4] was “block viral cytopathic effect”. The therapeutic index [5] was over 100, the “Tcon cell numbers after culture” value (B6 Tcons; 10 μg/ml (13 μM) to 30 μg/ml (39 μM), one hour, washed, 72 hours anti-CD3/anti-CD28/IL-2) was “no differences in cell numbers” and the cytotoxicity in vitro (B6 Tcons; doses up to 39 μM) was “did not induce any apparent cytotoxicity”. For the same compound, the “aGVHD with CCR7-/- donor Tcons” value ([6]; Tcons incubated 15 μg/ml) was “completely inactive”, the “aGVHD scores with CCR7-/- donor Tcons” value ([6]; Tcons incubated 30 μg/ml) was “trend for lower aGVHD scores” and the “survival times with CCR7-/- donor Tcons” value ([6]; Tcons incubated 30 μg/ml) was “longer survival times”. The overall survival times [7, 9] was “longest overall survival times”, the tumor growth [7, 9] was “substantial suppression of tumor growth” and the “mice died of aGVHD” value [7, 10] was 3/6. For the same compound, the “mice succumbed to malignancy” value [7, 10] was “none succumbed to malignancy”.
